The values that follow come from patent US7060844B2, “(3Z)-3-(2,3-dihydro-1H-inden-1-ylidene)-1,3-dihydro-2H-indol-2-ones as kinase inhibitors” (Allergan, Inc., priority 2002, dated 2006).

For assay [1], the system named is VEGF induced increases in intracellular calcium levels in HUVEC (human umbilical vein endothelial cells). As to the kind of experiment: VEGF Stimulated Ca++ Signal in Vitro (FLIPR, cell based assay). The following applies: for IC50: VEGF stimulation 5 ng/mL, 30 min pre-incubation, 0.01 to 10.0 uM. The method, then: VEGF Stimulated Ca^++ Signal in Vitro
Automated FLIPR (Fluorometric Imaging Plate Reader) technology was used to screen for inhibitors of VEGF induced increases in intracellular calcium levels in fluorescent dye loaded endothelial cells. HUVEC (human umbilical vein endothelial cells) (Clonetics) were seeded in 96-well fibronectin coated black-walled plates overnight @ 37° C./5% CO2. Cells were loaded with calcium indicator Fluo-4 for 45 minutes at 37° C. Cells were washed 4 times (Original Cell Wash, Labsystems) to remove extracellular dye. For screening, cells were pre-incubated with test agents for 30 minutes at a single concentration (10 uM) or at concentrations ranging from 0.01 to 10.0 uM, followed by VEGF stimulation (5 ng/mL). Changes in fluorescence at 516 nm were measured simultaneously in all 96 wells using a cooled CCD camera. Data were generated by determining max-min fluorescence levels for unstimulated, stimulated, and drug treated samples. IC50 values for test compounds were calculated from % inhibition of VEGF stimulated responses in the absence of inhibitor.

Assay [2] concerns the target T1, cytoplasmic domain of the human VEGF receptor (VEGFR-2) (Homo sapiens, UniProt P35968).
T1 construct: The cytoplasmic domain of the human VEGF receptor (VEGFR-2) was expressed; His (Histidine tag); made in house; host or cells: insect cells (engineered baculovirus)
Nature of the assay: KDR kinase assay (ELISA, poly-Glu-Tyr substrate, with BSA). It counts as biochemical. The following applies: His-VEGFR-2, 3.6 μM ATP, plates incubated with 1% BSA. As for the experimental part:
The cytoplasmic domain of the human VEGF receptor (VEGFR-2) was expressed as a Histidine-tagged fusion protein following infection of insect cells using an engineered baculovirus. His-VEGFR-2 was purified to homogeneity, as determined by SDS-PAGE, using nickel resin chromatography. Kinase assays were performed in 96 well microtiter plates that were coated overnight with 30 μg of poly-Glu-Tyr (4:1) in 10 mM Phosphate Buffered Saline (PBS), pH 7.2–7.4. The plates were incubated with 1% BSA and then washed four times with PBS prior to starting the reaction. Reactions were carried out in 120 μL reaction volumes containing 3.6 μM ATP in kinase buffer (50 mM Hepes pH 7.4, 20 mM MgCl2, 0.1 mM MnCl2 and 0.2 mM Na3VO4). Test compounds were reconstituted in 100% DMSO and added to the reaction to give a final DMSO concentration of 5%. Reactions were initiated by the addition 0.5 ng of purified protein. Following a ten minute incubation at 25° C., the reactions were washed four times with PBS containing 0.05% Tween-20. 100 μl of a monoclonal anti-phosphotyrosine antibody-peroxidase conjugate was diluted 1:10000 in PBS-Tween-20 and added to the wells for 30 minutes. Following four washes with PBS-Tween-20, 100 μl of 0-Phenylenediamine Dihydrochloride in Phosphate-citrate buffer, containing urea hydrogen peroxide, was added to the wells for 7 minutes as a colorimetric substrate for the peroxidase. The reaction was terminated by the addition of 100 μl of 2.5N H2SO4 to each well and read using a microplate ELISA reader set at 492 nm. IC50 values for compound inhibition were calculated directly from graphs of optical density (arbitrary units) versus compound concentration following subtraction of blank values.
Background: ELISA stands for enzyme-linked immunosorbent assay.

[3] abbreviates: Homo sapiens, single concentration 10 uM, VEGF 5 ng/mL.

T1 sequence (P35968 786-1356 limits assumed): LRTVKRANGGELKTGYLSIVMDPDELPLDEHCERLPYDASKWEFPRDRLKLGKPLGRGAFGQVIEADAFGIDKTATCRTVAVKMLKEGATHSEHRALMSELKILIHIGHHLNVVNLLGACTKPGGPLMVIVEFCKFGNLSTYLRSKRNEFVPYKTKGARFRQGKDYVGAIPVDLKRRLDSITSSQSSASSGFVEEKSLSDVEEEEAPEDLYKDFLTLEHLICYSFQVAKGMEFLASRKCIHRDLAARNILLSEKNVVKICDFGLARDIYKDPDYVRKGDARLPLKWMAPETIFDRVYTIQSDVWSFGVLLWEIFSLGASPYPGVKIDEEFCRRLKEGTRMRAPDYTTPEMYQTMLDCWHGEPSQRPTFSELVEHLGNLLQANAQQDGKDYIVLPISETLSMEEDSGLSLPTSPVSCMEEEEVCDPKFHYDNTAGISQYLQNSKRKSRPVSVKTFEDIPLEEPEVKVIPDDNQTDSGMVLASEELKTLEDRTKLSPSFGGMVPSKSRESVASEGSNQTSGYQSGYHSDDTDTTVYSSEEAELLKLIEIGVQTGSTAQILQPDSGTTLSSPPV

One may read the IC50 as the concentration that gives 50% inhibition. As a reminder, the inhibition is the change of the read-out against control, counted positive when it falls. With `O=C1Nc2ccccc2C1=C1OCc2ccccc21` [Example 1, 3-(3H-isobenzofuran-1-ylidene)-1,3-dihydro-indol-2-one], the IC50 in assay [1] (Homo sapiens) is 0.11 µM. Further, the inhibition at 10 µM in assay [1] (setting [3]) was found to be 99%.

`O=C1Nc2ccc(Cl)cc2C1=C1OCc2ccccc21` [Example 2, 5-Chloro-3-(3H-isobenzofuran-1-ylidene)-1,3-dihydro-indol-2-one]: the IC50 in assay [1] (Homo sapiens) is 0.05 µM. Further, in assay [1] (setting [3]), the inhibition at 10 µM was found to be 98%.

For `Cc1cccc2c1C(=C1OCc3ccccc31)C(=O)N2` [Example 3, 3-(3H-Isobenzofuran-1-ylidene)-4-methyl-1,3-dihydro-indol-2-one], the IC50 in assay [1] (Homo sapiens) was 0.685 µM. Also, the inhibition at 10 µM in assay [1] (setting [3]) is 95%.

As for `O=C1Nc2ccc(F)cc2C1=C1OCc2ccccc21` [Example 4, 5-Fluoro-3-(3H-isobenzofuran-1-ylidene)-1,3-dihydro-indol-2-one], the IC50 in assay [2] came out at 0.073 µM; in assay [1] (Homo sapiens), 0.055 µM. In addition, in assay [1] (setting [3]), the inhibition at 10 µM came out at 99%.

As to `Nc1ccc2c(c1)C(=C1C(=O)Nc3ccccc31)OC2` [Example 5, 3-(6-Amino-3H-isobenzofuran-1-ylidene)-1,3-dihydro-indol-2-one], the IC50 in assay [2] stood at 0.13 µM; in assay [1] (Homo sapiens) it was 0.04 µM. The inhibition at 10 µM in assay [1] (setting [3]) was 98%.

For the compound `CCCC(=O)Nc1ccc2c(c1)C(=C1C(=O)Nc3ccccc31)OC2` [Example 7, N-[3-(2-Oxo-1,2-dihydro-indol-3-ylidene)-1,3-dihydro-isobenzofuran-5-yl]-butyramide], the IC50 in assay [2] amounted to 9.78 µM. Moreover, the inhibition at 10 µM in assay [1] (setting [3]) turned out to be 5%.

`O=C1Nc2ccccc2C1=C1OCc2ccc(NC(=O)C3CC3)cc21` [Example 8, Cyclopropanecarboxylic acid [3-(2-oxo-1,2-dihydro-indol-3-ylidene)-1,3-dihydro-isobenzofuran-5-yl]-amide] yielded an IC50 in assay [2] of 0.85 µM. Moreover, the inhibition at 10 µM in assay [1] (setting [3]) is 48%.

`O=C(CCCCl)Nc1ccc2c(c1)C(=C1C(=O)Nc3ccccc31)OC2` [Example 9, 4-Chloro-N-[3-(2-oxo-1,2-dihydro-indol-3-ylidene)-1,3-dihydro-isobenzofuran-5-yl]-butyramide]: in assay [2], 3.25 µM corresponded to half-maximal inhibition (IC50). In addition, the inhibition at 10 µM in assay [1] (setting [3]) is 35%.

Regarding `COc1ccc(CC(=O)Nc2ccc3c(c2)C(=C2C(=O)Nc4ccccc42)OC3)cc1` [Example 10, 2-(4-Methoxy-phenyl)-N-[3-(2-oxo-1,2-dihydro-indol-3-ylidene)-1,3-dihydro-isobenzofuran-5-yl]-acetamide], inhibition in assay [2] was half-maximal at 8.02 µM (IC50). The inhibition at 10 µM in assay [1] (setting [3]) was 50%.

For `CCNc1ccc2c(c1)C(=C1C(=O)Nc3ccccc31)OC2` [Example 11, 3-(6-Ethylamino-3H-isobenzofuran-1-ylidene)-1,3-dihydro-indol-2-one], the IC50 was 0.66 µM in assay [2] and 0.78 µM in assay [1] (Homo sapiens). Also, the inhibition at 10 µM in assay [1] (setting [3]) amounted to 99%.

As to `Nc1ccc2c(c1)COC2=C1C(=O)Nc2ccccc21` [Example 12, 3-(5-Amino-3H-isobenzofuran-1-ylidene)-1,3-dihydro-indol-2-one], the IC50 in assay [2] is 0.065 µM; in assay [1] (Homo sapiens), 0.04 µM. Besides, the inhibition at 10 µM in assay [1] (setting [3]) turned out to be 98%.

Take `Nc1ccc(CO)c(C(=O)Nc2ccc3c(c2)C(=C2C(=O)Nc4ccccc42)OC3)c1` [Example 13, 5-Amino-2-hydroxymethyl-N-[3-(2-oxo-1,2-dihydro-indol-3-ylidene)-1,3-dihydro-isobenzofuran-5-yl]-benzamide]: the IC50 was 1.34 µM in assay [2] and 2.1 µM in assay [1] (Homo sapiens). Further, in assay [1] (setting [3]), the inhibition at 10 µM stood at 99%.

For the compound `O=C1Nc2ccccc2C1=C1OCc2ccc(NCCCO)cc21` [Example 14, 3-[6-(3-Hydroxy-propylamino)-3H-isobenzofuran-1-ylidene]-1,3-dihydro-indol-2-one], the IC50 in assay [2] worked out at 0.64 µM; in assay [1] (Homo sapiens), 0.85 µM. The inhibition at 10 µM in assay [1] (setting [3]) is 100%.

Turning to `CCNc1ccc2c(c1)COC2=C1C(=O)Nc2ccccc21` [Example 15, 3-(5-Ethylamino-3H-isobenzofuran-1-ylidene)-1,3-dihydro-indol-2-one], the IC50 in assay [2] was 0.037 µM; in assay [1] (Homo sapiens), 0.051 µM. The inhibition at 10 µM in assay [1] (setting [3]) stood at 95%.

As to `Nc1ccc2c(c1)C(=C1C(=O)Nc3ccc(Cl)cc31)OC2` [Example 16, 3-(6-Amino-3H-isobenzofuran-1-ylidene)-5-chloro-1,3-dihydro-indol-2-one], the results for the IC50 in assay [2] and in assay [1] (Homo sapiens) were 0.015 µM and 0.06 µM, respectively. Further, the inhibition at 10 µM in assay [1] (setting [3]) turned out to be 99%.

For the compound `Nc1ccc2c(c1)CO/C2=C1/C(=O)Nc2ccc(Cl)cc21` [Example 17, 3-(5-Amino-3H-isobenzofuran-1-ylidene)-5-chloro-1,3-dihydro-indol-2-one], the IC50 was 0.139 µM in assay [2] and 0.055 µM in assay [1] (Homo sapiens). Further, the inhibition at 10 µM in assay [1] (setting [3]) was 98%.

`CC(=O)Nc1ccc2c(c1)COC2=C1C(=O)Nc2ccccc21` [Example 18, N-[1-(2-Oxo-1,2-dihydro-indol-3-ylidene)-1,3-dihydro-isobenzofuran-5-yl]-acetamide]: the IC50 in assay [2] came out at 0.063 µM; in assay [1] (Homo sapiens), 0.04 µM. Further, the inhibition at 10 µM in assay [1] (setting [3]) stood at 97%.

For `CC(=O)Nc1ccc2c(c1)COC2=C1C(=O)Nc2ccc(Cl)cc21` [Example 19, N-[1-(5-Chloro-2-oxo-1,2-dihydro-indol-3-ylidene)-1,3-dihydro-isobenzofuran-5-yl]-acetamide], the IC50 in assay [2] amounted to 0.066 µM; in assay [1] (Homo sapiens), 0.05 µM. In assay [1] (setting [3]), the inhibition at 10 µM turned out to be 99%.

On to `CC(=O)Nc1ccc2c(c1)C(=C1C(=O)Nc3ccc(Cl)cc31)OC2` [Example 20, N-[3-(5-Chloro-2-oxo-1,2-dihydro-indol-3-ylidene)-1,3-dihydro-isobenzofuran-5-yl]-acetamide], for which the IC50 in assay [2] stood at 0.39 µM; in assay [1] (Homo sapiens) it was 0.097 µM. The inhibition at 10 µM in assay [1] (setting [3]) is 99%.

In the case of `CN(C)c1ccc2c(c1)C(=C1C(=O)Nc3ccccc31)OC2` [Example 21, 3-(6-Dimethylamino-3H-isobenzofuran-1-ylidene)-1,3-dihydro-indol-2-one], the IC50 came to 1.69 µM in assay [2] and 1.31 µM in assay [1] (Homo sapiens). Moreover, the inhibition at 10 µM in assay [1] (setting [3]) amounted to 94%.

On to `CNc1ccc2c(c1)C(=C1C(=O)Nc3ccccc31)OC2` [Example 22, 3-(6-Methylamino-3H-isobenzofuran-1-ylidene)-1,3-dihydro-indol-2-one], for which the figures for the IC50 in assay [2] and in assay [1] (Homo sapiens) were 0.17 µM and 0.29 µM, respectively. For the same compound, in assay [1] (setting [3]), the inhibition at 10 µM was determined as 96%.

`CN(C)c1ccc2c(c1)COC2=C1C(=O)Nc2ccccc21` [Example 23, 3-(5-Dimethylamino-3H-isobenzofuran-1-ylidene)-1,3-dihydro-indol-2-one]: the results for the IC50 in assay [2] and in assay [1] (Homo sapiens) were 0.043 µM and 0.096 µM, respectively. Moreover, the inhibition at 10 µM in assay [1] (setting [3]) came out at 96%.

As to `CNc1ccc2c(c1)COC2=C1C(=O)Nc2ccccc21` [Example 24, 3-(5-Methylamino-3H-isobenzofuran-1-ylidene)-1,3-dihydro-indol-2-one], the values for the IC50 in assay [2] and in assay [1] (Homo sapiens) were 0.061 µM and 0.073 µM, respectively. For the same compound, the inhibition at 10 µM in assay [1] (setting [3]) came out at 98%.

For “[3-(2-Oxo-1,2-dihydro-indol-3-ylidene)-1,3-dihydro-isobenzofuran-5-yl]-acetamide [Example 6]”, the IC50 is 1.11 µM in assay [2] and 1.23 µM in assay [1]. Also, the “VEGF (% inhibition @ 10 uM) (Cell based assay, Ca++)” value in assay [1] (single concentration 10 uM, VEGF 5 ng/mL) is reported as 97%.
